System: patients of the REDUCE-IT and earlier EPA placebo-controlled trials
Assay: Example 3: adverse events by risk ratio, icosapent ethyl vs placebo (candidate categories; infectious disease terms of interest)
Settings: for Risk Ratio (95% CI) / ARR / NNT / AR: Cough (AE table) / ARR: Cough (AE table) / NNT: Cough (AE table) / Risk Ratio (95% CI): Cough (AE table): R-I
[1] = Limb Fractures and Dislocations
[2] = NASH+Hepatic Steatosis for NFS >0.675
[3] = Psychosis: Psychotic disorder NEC
[4] = Squamous Cell Carcinoma of Head and Neck
[5] = Systemic Inflammatory Response Syndrome
[6] = first of three Cough lines of Table 46
[7] = second of three Cough lines of Table 46

For `CC/C=C\C/C=C\C/C=C\C/C=C\C/C=C\CCCC(=O)OCC` [icosapent ethyl, eicosapentaenoic acid ethyl ester], the “Risk Ratio (95% CI)” value (Guttate psoriasis, case counts given) was “[1 drug vs 0 PBO]”, the ARR (Hepatitis C) was 0.0% and the NNT (Hepatitis C) was −4089. For the same compound, the “Risk Ratio (95% CI)” value (Hepatitis C, case counts given) was “[1 drug vs 0 PBO]”, the “Risk Ratio (95% CI)” value (IgA Nephropathy) was “[No cases in study]” and the ARR (Large intestine polyps) was −0.2%. The NNT (Large intestine polyps) was 511, the “Risk Ratio (95% CI)” value (Large intestine polyps) was 0.385 (0.137 to 1.078) 4 and the ARR (Leukaemia) was 0.0%. For the same compound, the NNT (Leukaemia) was −1.67e+07, the “Risk Ratio (95% CI)” value (Leukaemia) was 1.000 (0.063 to 15.986) −1 and the ARR [1] was −0.1%. The NNT [1] was 1024, the “Risk Ratio (95% CI)” value [1] was 0.883 (0.541 to 1.439) 1 and the ARR (Liver Cancer) was 0.0%. For the same compound, the NNT (Liver Cancer) was −4088, the “Risk Ratio (95% CI)” value (Liver Cancer) was 2.000 (0.181 to 22.053) −3 and the ARR (Lung Cancer) was −0.1%. The NNT (Lung Cancer) was 1023, the “Risk Ratio (95% CI)” value (Lung Cancer) was 0.637 (0.247 to 1.640) 2 and the ARR (Lupus) was −0.0%. For the same compound, the NNT (Lupus) was 4090, the “Risk Ratio (95% CI)” value (Lupus, case counts given) was “[0 drug vs 1 PBO]” and the ARR (Macular Degeneration) was 0.1%. For the same compound, the NNT (Macular Degeneration) was −1361, the “Risk Ratio (95% CI)” value (Macular Degeneration) was 1.188 (0.612 to 2.306) −1 and the “Risk Ratio (95% CI)” value (Male Infertility) was “[No cases in study]”. The ARR (Migraine) was 0.2%, the NNT (Migraine) was −584 and the “Risk Ratio (95% CI)” value (Migraine) was 2.751 (0.877 to 8.631) −4. For the same compound, the “Risk Ratio (95% CI)” value (Mucositis) was “[No cases in study]”, the ARR (Multiple Sclerosis) was −0.0% and the NNT (Multiple Sclerosis) was 4090. The “Risk Ratio (95% CI)” value (Multiple Sclerosis, case counts given) was “[0 drug vs 1 PBO]”, the ARR (Muscle spasms) was −1.1% and the NNT (Muscle spasms) was 95. For the same compound, the “Risk Ratio (95% CI)” value (Muscle spasms) was 0.579 (0.421 to 0.795) 3, the ARR (NASH) was −0.1% and the NNT (NASH) was 818. For the same compound, the “Risk Ratio (95% CI)” value (NASH) was 0.167 (0.020 to 1.384) 5, the ARR (NASH for b/l NFS >0.675) was −0.4% and the NNT (NASH for b/l NFS >0.675) was 273. For the same compound, the “Risk Ratio (95% CI)” value (NASH for b/l NFS >0.675) was 0.252 (0.028 to 2.251) 4, the ARR [2] was −0.5% and the NNT [2] was 209. The “Risk Ratio (95% CI)” value [2] was 0.740 (0.342 to 1.601) 2, the ARR (Nephrolithiasis) was 0.1% and the NNT (Nephrolithiasis) was −1017. For the same compound, the “Risk Ratio (95% CI)” value (Nephrolithiasis) was 1.050 (0.777 to 1.419) −1, the ARR (Nephropathies) was −0.2% and the NNT (Nephropathies) was 455. For the same compound, the “Risk Ratio (95% CI)” value (Nephropathies) was 0.679 (0.380 to 1.213)2, the ARR (Nephrotic Syndrome) was −0.0% and the NNT (Nephrotic Syndrome) was 4090. The “Risk Ratio (95% CI)” value (Nephrotic Syndrome, case counts given) was “[0 drug vs 1 PBO]”, the “Risk Ratio (95% CI)” value (PMS/Dysmenorrhea) was “[No cases in study]” and the ARR (PTSD) was −0.0%. For the same compound, the NNT (PTSD) was 4092, the “Risk Ratio (95% CI)” value (PTSD) was 0.667 (0.111 to 3.989) 2 and the ARR (Pancreatic Cancer) was 0.1%. The NNT (Pancreatic Cancer) was −1022, the “Risk Ratio (95% CI)” value (Pancreatic Cancer) was 5.001 (0.585 to 42.789) −5 and the ARR (Periodontitis) was 0.0%. For the same compound, the NNT (Periodontitis) was −2044, the “Risk Ratio (95% CI)” value (Polycystic Ovarian Syndrome) was “[No cases in study]” and the ARR (Psoriasis) was 0.3%. For the same compound, the NNT (Psoriasis) was −341, the “Risk Ratio (95% CI)” value (Psoriasis) was 1.750 (0.949 to 3.230) −3 and the ARR (Psoriatic Conditions) was 0.3%. The NNT (Psoriatic Conditions) was −292, the “Risk Ratio (95% CI)” value (Psoriatic Conditions) was 1.875 (1.024 to 3.435) −3 and the ARR [3] was −0.0%. The NNT [3] was 4091, the “Risk Ratio (95% CI)” value [3] was 0.500 (0.045 to 5.513) 3 and the “Risk Ratio (95% CI)” value (Renal Transplant) was “[No cases in study]”. For the same compound, the ARR (Rheumatoid Arthritis) was −0.1%, the NNT (Rheumatoid Arthritis) was 1363 and the “Risk Ratio (95% CI)” value (Rheumatoid Arthritis, case counts given) was “[0 drug vs 3 PBO]”. The ARR (Schizophrenia NEC) was −0.0%, the NNT (Schizophrenia NEC) was 4091 and the “Risk Ratio (95% CI)” value (Schizophrenia NEC) was 0.500 (0.045 to 5.513) 3. The ARR (Sepsis) was −0.1%, the NNT (Sepsis) was 682 and the “Risk Ratio (95% CI)” value (Sepsis) was 0.807 (0.477 to 1.364) 1. For the same compound, the “Risk Ratio (95% CI)” value (Sickle Cell Disease) was “[No cases in study]”, the ARR [4] was −0.0% and the NNT [4] was 4090. For the same compound, the “Risk Ratio (95% CI)” value (Squamous Cell Carcinoma of Head and Neck, case counts given) was “[0 drug vs 1 PBO]”, the ARR [5] was −0.1% and the NNT [5] was 682. For the same compound, the “Risk Ratio (95% CI)” value [5] was 0.143 (0.018 to 1.161) 5, the ARR (Ulcerative Colitis) was −0.0% and the NNT (Ulcerative Colitis) was 4090. For the same compound, the “Risk Ratio (95% CI)” value (Ulcerative Colitis, case counts given) was “[0 drug vs 1 PBO]”, the ARR (Wheezing) was −0.3% and the NNT (Wheezing) was 315. The “Risk Ratio (95% CI)” value (Wheezing) was 0.639 (0.379 to 1.076) 2, the “AR: Cough (AE table)” value [6] was 1,5% and the “ARR: Cough (AE table)” value [6] was 0.9%. The “NNT: Cough (AE table)” value [6] was −112, the “Risk Ratio (95% CI): Cough (AE table)” value [6] was 1.928 (0.692 to 5.373) −3 and the “AR: Cough (AE table)” value [7] was 0.4%. The “ARR: Cough (AE table)” value [7] was −0.2%, the “NNT: Cough (AE table)” value [7] was 455 and the “Risk Ratio (95% CI): Cough (AE table)” value [7] was 0.526 (0.245 to 1.131) 3. For the same compound, the “Severe SIRS: RR” value (vs placebo, p value 0.06) was “approximately 0.17” and the “Systemic inflammatory response: risk ratio (RR)” value (vs placebo, p-value 0.0338) was 0.143.

Reference: US20210308089A1, “METHODS OF TREATING AND/OR PREVENTING VIRAL INFECTIONS AND/OR DISEASES CAUSED BY VIRUSES IN A SUBJECT IN NEED THEREOF” (priority 2020, published 2021)
